Test results: patent US8895590B2, “Epothilone compounds, preparation method and use thereof” (priority 2010, dated 2014)
Like-named read-outs stand apart in the source and are kept apart here.

Experiments:
Test in all cases: Sulforhodamine B (SRB) cytotoxicity test
Format in all cases: cell-based
NCl-H460 (Lung Cancer) = settings: cells cultured 3 days with compound, read-out: Half Inhibitory Concentration for Tumor Cell Growth (IC50)
Experimental: (§1) Sulforhodamine B (SRB) test was used for screening the selective compounds of the present invention according to their anti-tumor activity on four different tumor cell lines. In SRB analysis, the cultured cells were trypsinized, counted and diluted to a suitable concentration (5000-7500 cells/100 μl) with a culture medium. The cells were inoculated into a 96-well microtiter plate at 100 μl suspension/well. After 20 hours, the test compounds which were diluted in the culture medium to 2×1000 nM˜2×0.001 nM were added to each well. The cells were then cultured for 3 days, fixed with 100 μl 10% trichloroacetic acid at 4° C. for 1 hour, and then stained with 0.2% SRB/1% acetic acid at room temperature for 20 min. The unbound dye was rinsed with 1% acetic acid. The bound dye was dissolved with 200 μl 10 mM Tris-base. The amount of the bound dye was calculated from OD value detected at the wavelength of 515 nm. The amount of the bound dye was in direct proportion to the total amount of cell proteins. The data was analyzed with Kaleida Graph program, and the half inhibitory concentration (IC50) was calculated. Epothilones D and B were detected in parallel for Comparison. The results of the cytotoxicity experiments on the selected test compounds of the present invention are shown as follows. The other compounds of the present invention may also be detected with a similar method.

SF-268 (Glioma) = settings: cells cultured 3 days with compound, read-out: Half Inhibitory Concentration for Bacterial Growth (IC50)
Experimental: as §1

MCF-7 (Breast Cancer) = settings: cells cultured 3 days with compound, read-out: Half Inhibitory Concentration for Tumor Cell Growth (IC50)
Experimental: as §1

[1] = tested on: NCI/ADR-RES (MDR Breast Cancer); settings: cells cultured 3 days with compound, read-out: Half Inhibitory Concentration for Tumor Cell Growth (IC50)
Experimental: as §1

Row | Compound | IC50 (NCl-H460 (Lung Cancer)) [nM] | IC50 (SF-268 (Glioma)) [nM] | IC50 (MCF-7 (Breast Cancer)) [nM] | IC50 [1] [nM] | IC50 (NCl-H460 (Lung Cancer); 72 h) [nM] | IC50 (SF-268 (Glioma); Homo sapiens, 72 h) [nM] | IC50 (MCF-7 (Breast Cancer); Homo sapiens, MCF7, 72 h) [nM] | IC50 ([1]; Homo sapiens, 72 h) [nM]
1 | 14-N(CH3)2 Epothilone B [II-L] | 0.5 | 1 | 0.05 | 0.1 | – | – | – | –
2 | 14-NH2 Epothilone B [II-B] | 0.2 | 0.2 | 0.1 | 0.5 | – | – | – | –
3 | 14-NH2 Epothilone D [II-A] | 7 | 6 | 7 | 12 | – | – | – | –
4 | C/C(=C\c1csc(C)n1)[C@@H]1C[C@@H]2O[C@]2(C)CCC[C@H](C)[C@H](O)[C@@H](C)C(=O)C(C)(C)[C@@H](O)CC(=O)O1 [Epo B, Epothilone B, reference compound] | 0.7 | 0.8 | 0.5 | 5 | – | – | – | –
5 | C/C1=C/C[C@@H](/C(C)=C/c2csc(C)n2)OC(=O)C[C@H](O)C(C)(C)C(=O)[C@H](C)[C@@H](O)[C@@H](C)CCC1 [Epo D, Epothilone D, reference compound] | 17 | 18 | 13 | 42 | – | – | – | –
6 | COC1/C=C(/C)CCC[C@H](C)[C@H](O)[C@@H](C)C(=O)C(C)[C@@H](O)CC(=O)O[C@@H]1/C(C)=C/c1csc(C)n1 (stereo partly drawn) [II-N] | – | – | – | – | 2 | 3 | 2 | 7
